According to ChEMBL document CHEMBL4270495, “Oleanane-, ursane-, and quinone methide friedelane-type triterpenoid derivatives: Recent advances in cancer treatment” (Eur J Med Chem, 2017):
pIC50: −log10 of the molar value.

What was measured:
HeLa [1] = assay: Cytotoxicity in human HeLa cells assessed as reduction in cell viability; format: functional, cell-based
BGC-823 [2] = assay: Cytotoxicity in human BGC823 cells assessed as reduction in cell viability; format: functional, cell-based
HepG2 [3] = assay: Cytotoxicity in human HepG2 cells assessed as reduction in cell viability incubated for 72 hrs by CCK8 assay; format: functional, cell-based; conditions: HepG2, 72 h
A549 [4] = assay: Cytotoxicity in human A549 cells assessed as reduction in cell viability incubated for 72 hrs by CCK8 assay; format: functional, cell-based; conditions: A549, 72 h
MCF7 [5] = assay: Cytotoxicity in human MCF7 cells assessed as reduction in cell viability incubated for 72 hrs by CCK8 assay; format: functional, cell-based; conditions: MCF7, 72 h
HeLa [6] = assay: Cytotoxicity in human HeLa cells assessed as reduction in cell viability incubated for 72 hrs by CCK8 assay; format: functional, cell-based
SGC-7901 = assay: Cytotoxicity in human SGC7901 cells assessed as reduction in cell viability incubated for 72 hrs by CCK8 assay; format: functional, cell-based; conditions: SGC-7901, 72 h
PC-3 = assay: Cytotoxicity in human PC3 cells assessed as reduction in cell viability incubated for 72 hrs by CCK8 assay; format: functional, cell-based; conditions: PC-3, 72 h
HT-29 [7] = assay: Cytotoxicity in human HT-29 cells assessed as reduction in cell viability incubated for 96 hrs by SRB assay; format: functional, cell-based; conditions: HT-29, 96 h
A549 [8] = assay: Cytotoxicity in human A549 cells assessed as reduction in cell viability incubated for 96 hrs by SRB assay; format: functional, cell-based; conditions: A549, 96 h
HT-29 [9] = assay: Cytotoxicity in human HT-29 cells assessed as reduction in cell viability incubated for 72 hrs by MTT assay; format: functional, cell-based; conditions: HT-29, 72 h
HepG2 [10] = assay: Cytotoxicity in human HepG2 cells assessed as reduction in cell viability incubated for 72 hrs by MTT assay; format: functional, cell-based; conditions: HepG2, 72 h
B16-F10 = assay: Cytotoxicity in mouse B16F10 cells assessed as reduction in cell viability incubated for 72 hrs by MTT assay; format: functional, cell-based; conditions: B16-F10, 72 h
HepG2 [11] = assay: Cytotoxicity in human HepG2 cells assessed as reduction in cell viability incubated for 48 hrs by MTT assay; format: functional, cell-based; conditions: HepG2, 48 h
HeLa [12] = assay: Cytotoxicity in human HeLa cells assessed as reduction in cell viability incubated for 48 hrs by MTT assay; format: functional, cell-based
BGC-823 [13] = assay: Cytotoxicity in human BGC823 cells assessed as reduction in cell viability incubated for 48 hrs by MTT assay; format: functional, cell-based; conditions: BGC-823, 48 h
MCF7 [14] = assay: Cytotoxicity in human MCF7 cells assessed as reduction in cell viability incubated for 48 hrs by SRB assay; format: functional, cell-based; conditions: MCF7, 48 h
MDA-MB-231 = assay: Cytotoxicity in human MDA-MB-231 cells assessed as reduction in cell viability incubated for 48 hrs by SRB assay; format: functional; conditions: MDA-MB-231, 48 h
A549 [15] = assay: Cytotoxicity in human A549 cells assessed as reduction in cell viability incubated for 48 hrs by MTT assay; format: functional, cell-based; conditions: A549, 48 h
T-24 = assay: Cytotoxicity in human T24 cells assessed as reduction in cell viability incubated for 48 hrs by MTT assay; format: functional, cell-based; conditions: T-24, 48 h
[16] = Cytotoxicity in human SPCA2 cells assessed as reduction in cell viability incubated for 48 hrs by MTT assay; format: functional, cell-based; conditions: SPCA2, 48 h
HUVEC = assay: Cytotoxicity in HUVEC cells assessed as reduction in cell viability incubated for 48 hrs by MTT assay; format: cell-based; conditions: Homo sapiens
[17] = Cytotoxicity in human […] cells assessed as reduction in cell viability incubated for 72 hrs by MTT assay; format: functional, cell-based
AGS = assay: Cytotoxicity in human AGS cells assessed as reduction in cell viability incubated for 24 hrs by MTT assay; format: functional, cell-based
[18] = Cytotoxicity in human HELF cells assessed as reduction in cell viability incubated for 24 hrs by MTT assay; format: cell-based
HMEC = assay: Cytotoxicity in human HMEC cells assessed as reduction in cell viability incubated for 48 hrs by SRB assay; format: cell-based

Structure (SMILES): CCCC(=O)O[C@H]1CC[C@]2(C)[C@H]3CC=C4[C@@H]5[C@@H](C)[C@H](C)CC[C@]5(C(=O)N5CCOCC5)CC[C@@]4(C)[C@]3(C)CC[C@H]2C1(C)C
- pIC50 (HeLa [1]): < 5.00
- pIC50 (BGC-823 [2]): 5.01

Structure (SMILES): COC(=O)C(C)NC(=O)[C@]12CC[C@@H](C)[C@H](C)[C@H]1C1=CC[C@@H]3[C@@]4(C)C[C@@H](OC(C)=O)[C@H](OC(C)=O)[C@@](C)(COC(C)=O)[C@@H]4CC[C@@]3(C)[C@]1(C)CC2 (stereo partly drawn)
- pIC50 (HepG2 [3]): 6.52
- pIC50 (A549 [4]): 5.51
- pIC50 (MCF7 [5]): 5.41
- pIC50 (HeLa [6]): 5.29
- pIC50 (SGC-7901): 5.04
- pIC50 (PC-3): 5.00

Structure (SMILES): COC(=O)[C@]12CCC(C)(C)C[C@H]1C1=CC[C@@H]3[C@@]4(C)C[C@@H](OS(N)(=O)=O)[C@H](O)C(C)(C)[C@@H]4CC[C@@]3(C)[C@]1(C)CC2
- pIC50 (HT-29 [7]): 5.12
- pIC50 (A549 [8]): 5.19

Structure (SMILES): CC(=O)O[C@@H]1C[C@]2(C)[C@H]3CC=C4[C@@H]5CC(C)(C)CC[C@]5(C(=O)NCCCCCCCCCCC(=O)O)CC[C@@]4(C)[C@]3(C)CC[C@H]2C(C)(C)[C@H]1OC(C)=O
- pIC50 (HT-29 [9]): 5.51
- pIC50 (HepG2 [10]): 4.85
- pIC50 (B16-F10): 5.62

Structure (SMILES): CCCC(=O)O[C@@H]1C[C@]2(C)[C@H]3CC=C4[C@@H]5CC(C)(C)CC[C@]5(C(=O)NCCCCCCCCCCC(=O)O)CC[C@@]4(C)[C@]3(C)CC[C@H]2C(C)(C)[C@H]1OC(=O)CCC
- pIC50 (HT-29 [9]): 5.86
- pIC50 (HepG2 [10]): 4.56
- pIC50 (B16-F10): 5.24

Structure (SMILES): CC(=O)O/N=C1\CC[C@]2(C)[C@H]3CC=C4[C@@H]5[C@@H](C)[C@H](C)CC[C@]5(C(=O)Nc5ccccc5C(=O)O)CC[C@@]4(C)[C@]3(C)CC[C@H]2C1(C)C
- pIC50 (HepG2 [11]): 4.63
- pIC50 (HeLa [12]): 4.86
- pIC50 (BGC-823 [13]): 5.04

Structure (SMILES): C[C@H]1[C@H](C)CC[C@]2(C(=O)O)CC[C@]3(C)C(=CC[C@@H]4[C@@]5(C)C[C@@H](O)[C@H](O)[C@@](C)(CO)[C@@H]5CC[C@]43C)[C@H]12 [ASIATIC ACID]
- GI50 (MCF7 [14]): 19.1 µM
- GI50 (MDA-MB-231): 18.1 µM
- pIC50 (A549 [4]): 4.73
- pIC50 (MCF7 [5]): 4.48
- pIC50 (HeLa [6]): 4.26 to 5.40
- pIC50 (SGC-7901): 4.43
- pIC50 (PC-3): 4.27
- pIC50 (A549 [15]): 4.42
- pIC50 (T-24): 4.47
- pIC50 [16]: 4.40
- pIC50 (HUVEC): < 4.00

Structure (SMILES): C[C@H]1[C@H](C)CC[C@]2(C(=O)OCc3ccccc3)CC[C@]3(C)C(=CC[C@@H]4[C@@]5(C)CC[C@H](OC(=O)CCC(=O)O)C(C)(C)[C@@H]5CC[C@]43C)[C@H]12
- pIC50 [17]: 5.09

Structure (SMILES): CC(=O)O/N=C1\CC[C@]2(C)[C@H]3CC=C4[C@@H]5[C@@H](C)[C@H](C)CC[C@]5(C(=O)Nc5ccccc5)CC[C@@]4(C)[C@]3(C)CC[C@H]2C1(C)C
- pIC50 (HepG2 [11]): 4.67
- pIC50 (HeLa [12]): 5.03
- pIC50 (BGC-823 [13]): 5.09

Structure (SMILES): C[C@H]1[C@H](C)CC[C@]2(C(=O)O)CC[C@]3(C)C(=CC[C@@H]4[C@@]5(C)CC[C@H](O)C(C)(C)[C@@H]5CC[C@]43C)[C@H]12 [URSOLIC ACID]
- pIC50 (AGS): 4.36
- pIC50 [18]: 4.67
- pIC50 [17]: 4.58
- GI50 (MCF7 [14]): 21 µM
- GI50 (MDA-MB-231): 11.1 µM
- pIC50 (HMEC): 4.41

Structure (SMILES): CC(=O)O[C@H]1CC[C@]2(C)[C@H]3CC=C4[C@@H]5[C@@H](C)[C@H](C)CC[C@]5(C(=O)N5CCOCC5)CC[C@@]4(C)[C@]3(C)CC[C@H]2C1(C)C
- pIC50 (HeLa [1]): 5.66
- pIC50 (BGC-823 [2]): < 5.00

Structure (SMILES): COC(=O)C1CCCN1C(=O)[C@]12CC[C@@H](C)[C@H](C)[C@H]1C1=CC[C@@H]3[C@@]4(C)C[C@@H](OC(C)=O)[C@H](OC(C)=O)[C@@](C)(COC(C)=O)[C@@H]4CC[C@@]3(C)[C@]1(C)CC2 (stereo partly drawn)
- pIC50 (HepG2 [3]): 6.05
- pIC50 (A549 [4]): 5.62
- pIC50 (MCF7 [5]): 5.35
- pIC50 (HeLa [6]): 5.32
- pIC50 (SGC-7901): 5.34
- pIC50 (PC-3): 5.04
